Reference: ChEMBL document CHEMBL4828765, “Design and Development of a Chemical Probe for Pseudokinase Ca2+/calmodulin-Dependent Ser/Thr Kinase” (J Med Chem, 2021)

How the values were obtained:
[1] = molecular target: Casein kinase I isoform epsilon (Homo sapiens, UniProt P49674); assay: Binding affinity to CSNK1E (unknown origin) assessed as change in melting temperature by SYPRO orange dye based DSF assay
[2] = molecular target: T1, Tyrosine-protein kinase Mer (Homo sapiens) (UniProt Q12866); assay: Binding affinity to MERTK (571 to 864 residue) (unknown origin) expressed in Escherichia coli Rosetta cells assessed as change in melting temperature by SYPRO orange dye based DSF assay
T1 sequence (whole entry): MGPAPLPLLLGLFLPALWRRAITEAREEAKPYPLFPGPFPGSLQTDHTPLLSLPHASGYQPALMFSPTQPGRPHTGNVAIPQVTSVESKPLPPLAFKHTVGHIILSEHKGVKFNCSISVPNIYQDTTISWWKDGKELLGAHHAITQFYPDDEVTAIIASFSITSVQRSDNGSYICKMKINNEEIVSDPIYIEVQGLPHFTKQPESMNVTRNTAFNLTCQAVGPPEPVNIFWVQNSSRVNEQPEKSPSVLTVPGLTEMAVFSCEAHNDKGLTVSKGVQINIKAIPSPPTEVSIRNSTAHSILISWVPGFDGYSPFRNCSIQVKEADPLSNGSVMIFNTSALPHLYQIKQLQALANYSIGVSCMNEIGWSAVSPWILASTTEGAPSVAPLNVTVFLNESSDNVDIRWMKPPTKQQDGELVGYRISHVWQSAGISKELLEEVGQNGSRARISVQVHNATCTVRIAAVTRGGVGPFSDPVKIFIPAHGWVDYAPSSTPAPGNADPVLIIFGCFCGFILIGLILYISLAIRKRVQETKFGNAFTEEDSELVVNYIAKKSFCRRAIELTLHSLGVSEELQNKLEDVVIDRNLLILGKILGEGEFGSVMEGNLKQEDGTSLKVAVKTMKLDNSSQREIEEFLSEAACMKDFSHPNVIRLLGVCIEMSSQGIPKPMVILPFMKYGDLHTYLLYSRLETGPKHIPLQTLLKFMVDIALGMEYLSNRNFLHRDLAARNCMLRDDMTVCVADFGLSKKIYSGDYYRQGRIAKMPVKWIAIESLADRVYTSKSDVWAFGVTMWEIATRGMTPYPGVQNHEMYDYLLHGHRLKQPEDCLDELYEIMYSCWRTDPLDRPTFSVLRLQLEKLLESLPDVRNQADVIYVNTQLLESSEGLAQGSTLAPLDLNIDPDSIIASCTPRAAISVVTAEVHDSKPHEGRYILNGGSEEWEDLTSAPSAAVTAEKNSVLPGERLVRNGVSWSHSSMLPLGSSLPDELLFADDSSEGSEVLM

Homo sapiens = species on record: Homo sapiens; assay: Binding affinity to MERTK-AXL mutant (unknown origin) expressed in Escherichia coli Rosetta cells assessed as change in melting temperature by SYPRO orange dye based DSF assay
[3] = molecular target: T2, Peripheral plasma membrane protein CASK (Homo sapiens) (UniProt O14936)
T2 sequence (whole entry): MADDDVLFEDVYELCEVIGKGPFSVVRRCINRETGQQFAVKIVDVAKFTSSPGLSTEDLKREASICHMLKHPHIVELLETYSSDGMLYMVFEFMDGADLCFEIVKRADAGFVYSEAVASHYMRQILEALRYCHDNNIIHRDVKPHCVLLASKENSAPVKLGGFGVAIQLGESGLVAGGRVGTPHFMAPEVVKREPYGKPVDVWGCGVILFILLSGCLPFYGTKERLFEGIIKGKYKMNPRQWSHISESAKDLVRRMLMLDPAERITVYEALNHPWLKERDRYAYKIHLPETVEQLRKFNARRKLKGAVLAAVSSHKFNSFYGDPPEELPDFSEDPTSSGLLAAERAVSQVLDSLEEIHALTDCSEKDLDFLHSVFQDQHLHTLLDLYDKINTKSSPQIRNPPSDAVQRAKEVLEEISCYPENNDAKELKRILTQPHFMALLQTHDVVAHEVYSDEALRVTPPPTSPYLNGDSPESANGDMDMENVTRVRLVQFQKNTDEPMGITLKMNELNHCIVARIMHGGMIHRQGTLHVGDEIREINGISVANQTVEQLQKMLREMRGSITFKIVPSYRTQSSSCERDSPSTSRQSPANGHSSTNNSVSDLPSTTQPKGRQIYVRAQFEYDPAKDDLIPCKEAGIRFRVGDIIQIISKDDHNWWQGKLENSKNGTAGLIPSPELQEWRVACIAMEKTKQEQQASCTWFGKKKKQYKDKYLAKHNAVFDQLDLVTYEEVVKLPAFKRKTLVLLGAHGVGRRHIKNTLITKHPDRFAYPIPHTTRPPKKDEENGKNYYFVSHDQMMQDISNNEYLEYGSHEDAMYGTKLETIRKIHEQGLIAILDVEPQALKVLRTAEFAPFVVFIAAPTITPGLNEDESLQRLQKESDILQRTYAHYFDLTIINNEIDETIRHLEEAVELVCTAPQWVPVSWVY
Description: Binding affinity to recombinant N-terminal His-tagged CASK (1 to 337 residues) (unknown origin) expressed in Escherichia coli assessed as change in melting temperature by SYPRO orange dye based DSF assay

[4] = molecular target: T3, Tyrosine-protein kinase ABL1 (Homo sapiens, UniProt P00519)
T3 sequence (P00519 whole entry, the tested form may be a part): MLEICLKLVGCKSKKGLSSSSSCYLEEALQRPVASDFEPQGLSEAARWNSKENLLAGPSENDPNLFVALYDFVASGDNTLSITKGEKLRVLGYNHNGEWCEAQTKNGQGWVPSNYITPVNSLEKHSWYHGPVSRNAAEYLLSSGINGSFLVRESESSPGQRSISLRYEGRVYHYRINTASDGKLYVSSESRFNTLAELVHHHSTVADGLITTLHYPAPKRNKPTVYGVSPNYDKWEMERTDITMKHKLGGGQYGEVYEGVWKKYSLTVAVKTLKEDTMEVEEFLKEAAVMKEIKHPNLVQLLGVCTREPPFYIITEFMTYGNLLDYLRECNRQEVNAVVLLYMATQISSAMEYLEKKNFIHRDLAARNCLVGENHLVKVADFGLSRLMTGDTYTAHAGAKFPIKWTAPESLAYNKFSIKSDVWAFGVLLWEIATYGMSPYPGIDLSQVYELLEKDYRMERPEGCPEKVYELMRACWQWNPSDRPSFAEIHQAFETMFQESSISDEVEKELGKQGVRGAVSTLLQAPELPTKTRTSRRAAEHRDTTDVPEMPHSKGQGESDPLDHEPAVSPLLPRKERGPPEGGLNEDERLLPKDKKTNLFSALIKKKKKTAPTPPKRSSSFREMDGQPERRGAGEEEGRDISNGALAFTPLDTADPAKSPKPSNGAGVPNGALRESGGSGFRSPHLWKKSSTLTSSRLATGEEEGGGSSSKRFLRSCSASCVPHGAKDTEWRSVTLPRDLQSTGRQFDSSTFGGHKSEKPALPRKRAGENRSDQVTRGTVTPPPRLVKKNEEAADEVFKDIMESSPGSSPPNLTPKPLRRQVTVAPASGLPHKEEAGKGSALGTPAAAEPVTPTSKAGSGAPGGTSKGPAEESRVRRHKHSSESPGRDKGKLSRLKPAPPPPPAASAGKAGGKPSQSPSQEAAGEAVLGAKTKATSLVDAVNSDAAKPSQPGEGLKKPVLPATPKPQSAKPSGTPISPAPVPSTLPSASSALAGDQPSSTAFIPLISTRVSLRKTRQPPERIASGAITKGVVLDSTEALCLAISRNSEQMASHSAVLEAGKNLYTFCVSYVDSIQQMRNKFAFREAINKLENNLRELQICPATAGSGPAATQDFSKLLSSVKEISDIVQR
Description: Binding affinity to non-phosphorylated ABL1 (unknown origin) assessed as change in melting temperature by SYPRO orange dye based DSF assay

[5] = molecular target: T4, Tyrosine-protein kinase receptor TYRO3 (Homo sapiens, UniProt Q06418); assay: Inhibition of tracer K5 binding to NanoLuc-fused TYRO3 (unknown origin) expressed in HEK293T cells measured after 2 hrs by NanoBRET assay; format: cell-based
T4 sequence (Q06418 whole entry): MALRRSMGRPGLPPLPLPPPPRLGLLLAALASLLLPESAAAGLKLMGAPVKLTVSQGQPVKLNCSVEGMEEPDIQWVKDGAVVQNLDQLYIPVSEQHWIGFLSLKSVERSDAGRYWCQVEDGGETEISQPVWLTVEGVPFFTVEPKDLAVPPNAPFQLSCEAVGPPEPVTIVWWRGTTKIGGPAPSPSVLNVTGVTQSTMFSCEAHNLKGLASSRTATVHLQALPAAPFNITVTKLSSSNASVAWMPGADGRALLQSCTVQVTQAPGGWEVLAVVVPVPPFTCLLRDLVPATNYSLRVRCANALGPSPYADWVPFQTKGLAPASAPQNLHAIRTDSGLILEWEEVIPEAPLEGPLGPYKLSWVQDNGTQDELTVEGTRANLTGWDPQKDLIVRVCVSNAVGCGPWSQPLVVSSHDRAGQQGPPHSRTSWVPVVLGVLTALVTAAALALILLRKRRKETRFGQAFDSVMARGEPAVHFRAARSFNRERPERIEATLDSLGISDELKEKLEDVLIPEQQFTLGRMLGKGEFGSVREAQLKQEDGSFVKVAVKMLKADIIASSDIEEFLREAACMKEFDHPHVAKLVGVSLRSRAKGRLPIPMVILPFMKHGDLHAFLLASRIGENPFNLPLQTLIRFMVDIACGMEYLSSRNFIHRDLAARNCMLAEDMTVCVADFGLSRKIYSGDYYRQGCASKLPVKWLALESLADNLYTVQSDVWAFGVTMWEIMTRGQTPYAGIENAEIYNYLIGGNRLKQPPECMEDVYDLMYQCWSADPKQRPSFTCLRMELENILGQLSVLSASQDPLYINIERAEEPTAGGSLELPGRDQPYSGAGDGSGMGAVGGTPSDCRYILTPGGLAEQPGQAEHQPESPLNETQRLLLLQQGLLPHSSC

[6] = molecular target: T5, Tyrosine-protein kinase Mer (Homo sapiens, UniProt Q12866); assay: Inhibition of tracer K5 binding to NanoLuc-fused MERTK (unknown origin) expressed in HEK293T cells measured after 2 hrs by NanoBRET assay; format: cell-based
T5 sequence (Q12866 whole entry): T1 sequence (whole entry)

[7] = molecular target: T6, Tyrosine-protein kinase receptor UFO (Homo sapiens, UniProt P30530); assay: Inhibition of tracer K5 binding to NanoLuc-fused AXL (unknown origin) expressed in HEK293T cells measured after 2 hrs by NanoBRET assay; format: cell-based
T6 sequence (P30530 whole entry): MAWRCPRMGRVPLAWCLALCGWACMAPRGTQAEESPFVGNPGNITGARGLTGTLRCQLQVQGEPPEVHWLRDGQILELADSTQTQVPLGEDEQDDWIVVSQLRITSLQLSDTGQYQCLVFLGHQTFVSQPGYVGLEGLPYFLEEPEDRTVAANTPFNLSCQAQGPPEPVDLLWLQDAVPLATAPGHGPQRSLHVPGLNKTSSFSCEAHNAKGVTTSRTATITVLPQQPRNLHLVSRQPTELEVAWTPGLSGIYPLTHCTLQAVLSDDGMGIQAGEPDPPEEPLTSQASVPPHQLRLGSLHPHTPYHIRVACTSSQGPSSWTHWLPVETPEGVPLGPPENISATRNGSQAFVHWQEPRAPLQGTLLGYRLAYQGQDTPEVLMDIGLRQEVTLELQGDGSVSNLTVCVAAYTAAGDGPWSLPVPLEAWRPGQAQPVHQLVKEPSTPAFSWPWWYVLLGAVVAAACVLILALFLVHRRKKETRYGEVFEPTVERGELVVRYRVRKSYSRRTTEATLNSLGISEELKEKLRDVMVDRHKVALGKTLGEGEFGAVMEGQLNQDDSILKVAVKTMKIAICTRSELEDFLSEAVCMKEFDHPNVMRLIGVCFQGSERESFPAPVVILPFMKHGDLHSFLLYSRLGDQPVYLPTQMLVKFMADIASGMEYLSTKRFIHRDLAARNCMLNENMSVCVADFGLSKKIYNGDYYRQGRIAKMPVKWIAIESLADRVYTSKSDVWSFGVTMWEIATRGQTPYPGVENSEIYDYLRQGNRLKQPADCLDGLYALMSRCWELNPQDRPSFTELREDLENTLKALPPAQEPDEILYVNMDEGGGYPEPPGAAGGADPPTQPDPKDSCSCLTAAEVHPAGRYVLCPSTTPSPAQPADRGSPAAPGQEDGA

[8] = molecular target: T3, Tyrosine-protein kinase ABL1; assay: Inhibition of tracer K5 binding to NanoLuc-fused ABL1 (unknown origin) expressed in HEK293T cells measured after 2 hrs by NanoBRET assay; format: cell-based

Sequence of Casein kinase I isoform epsilon (P49674 whole entry, looked up, canonical isoform): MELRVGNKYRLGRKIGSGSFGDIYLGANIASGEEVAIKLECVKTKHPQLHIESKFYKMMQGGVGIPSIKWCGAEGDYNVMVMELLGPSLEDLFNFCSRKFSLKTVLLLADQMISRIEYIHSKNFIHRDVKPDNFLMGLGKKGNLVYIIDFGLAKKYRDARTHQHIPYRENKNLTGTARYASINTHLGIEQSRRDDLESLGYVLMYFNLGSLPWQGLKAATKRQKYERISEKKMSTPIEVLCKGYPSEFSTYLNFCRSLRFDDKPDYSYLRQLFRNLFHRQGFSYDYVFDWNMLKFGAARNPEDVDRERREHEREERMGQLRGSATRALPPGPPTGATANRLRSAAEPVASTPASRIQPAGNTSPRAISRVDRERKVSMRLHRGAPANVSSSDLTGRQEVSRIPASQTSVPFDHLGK

O=C(NCCCN1CCCC1=O)c1cnc(NCc2ccccc2Cl)nc1NC1CCCC1
deltaTm [1]: 4.8 K
deltaTm [2]: -0.1 K
deltaTm (Homo sapiens): -0.2 K
deltaTm [3]: 3.3 K
deltaTm [4]: 5.9 K

Cc1ccc(CNc2ncc(C(=O)NCCCN3CCOC3=O)c(NC3CCCCC3)n2)c(Br)c1
deltaTm [1]: 1.5 K
deltaTm [2]: 0.7 K
deltaTm (Homo sapiens): -0.1 K
deltaTm [3]: 6 K
deltaTm [4]: 6.2 K

O=C(NCCCN1CCCC1=O)c1cnc(NCc2cc(Br)ccc2Br)nc1NC1CCCC1
deltaTm [1]: 4.4 K
deltaTm [2]: -0.7 K
deltaTm (Homo sapiens): 0.2 K
deltaTm [4]: 6.3 K

O=C(NCCCN1CCCC1=O)c1cnc(NCc2ccc(Cl)cc2Cl)nc1NC1CCCC1
deltaTm [1]: 2.1 K
deltaTm [2]: 0.1 K
IC50 [5]: > 10 µM
deltaTm (Homo sapiens): 0 K
IC50 [6]: > 10 µM
IC50 [7]: > 10 µM
IC50 [8]: > 10 µM
deltaTm [4]: 2.3 K

O=C(NCCCN1CCCC1=O)c1cnc(NCc2cccc(Br)c2)nc1NC1CCCC1
deltaTm [1]: 6.5 K
deltaTm [2]: 0.6 K
deltaTm (Homo sapiens): 0.3 K
deltaTm [3]: 3.8 K
deltaTm [4]: 6.9 K

O=C(NCCCN1CCCC1=O)c1cnc(NCc2ccc(Br)cc2)nc1NC1CCCC1
deltaTm [1]: 2.2 K
deltaTm [2]: -0.1 K
deltaTm (Homo sapiens): 0 K
deltaTm [3]: 1.2 K
deltaTm [4]: 6.8 K

CN[C@@H]1C[C@H]2O[C@@](C)([C@@H]1OC)n1c3ccccc3c3c4c(c5c6ccccc6n2c5c31)C(=O)NC4
deltaTm [1]: 2.3 K
deltaTm [2]: 4.8 K

O=C(NCCCN1CCCC1=O)c1cnc(NCc2ccccc2Br)nc1NC1CCCC1
deltaTm [1]: 4.4 K
deltaTm [2]: -0.5 K
deltaTm (Homo sapiens): -0.1 K
deltaTm [3]: 4.8 K
deltaTm [4]: 7 K

O=C(NCCCN1CCCC1=O)c1cnc(NCc2cc(Cl)ccc2Cl)nc1NC1CC1
deltaTm [1]: 4 K
deltaTm [2]: -0.4 K
deltaTm (Homo sapiens): -0.2 K
deltaTm [3]: 1.4 K
deltaTm [4]: 4.9 K

O=C(NCCCN1CCCC1=O)c1cnc(NCc2cc(Cl)ccc2Cl)nc1Nc1ccccc1
deltaTm [1]: 3.6 K
deltaTm [2]: -0.7 K
deltaTm (Homo sapiens): -0.3 K
deltaTm [3]: 1.4 K
deltaTm [4]: 2.9 K

COc1ccc(OC)c(CNc2ncc(C(=O)NCCCN3CCCC3=O)c(NC3CCCC3)n2)c1
deltaTm [1]: 0.4 K
deltaTm [2]: -0.5 K
deltaTm (Homo sapiens): -0.2 K
deltaTm [3]: 0.8 K
deltaTm [4]: 0.7 K

O=C(NCCCN1CCCC1=O)c1cnc(NCc2cc(Cl)ccc2Cl)nc1NC1CCCCC1
deltaTm [1]: 5 K
deltaTm [2]: -0.2 K
deltaTm (Homo sapiens): 0.1 K
deltaTm [3]: 5.7 K
deltaTm [4]: 7.7 K

Cc1ccc(CNc2ncc(C(=O)NCCCN3CCOC3=O)c(NC3CCCC3)n2)c(Br)c1
deltaTm [1]: 0.1 K
deltaTm [2]: -0.2 K
deltaTm (Homo sapiens): -0.1 K
deltaTm [3]: 6.1 K
deltaTm [4]: 5.8 K

O=C(NCCCN1CCCC1=O)c1cnc(NCc2cc(F)ccc2F)nc1NC1CCCC1
deltaTm [1]: 5.9 K
deltaTm [2]: 0.6 K
deltaTm (Homo sapiens): 0.3 K
IC50 [6]: 4.48 µM
deltaTm [4]: 6.1 K

O=C(NCCCN1CCCC1=O)c1cnc(NCc2cc(Cl)ccc2Cl)nc1NC1CCCC1
deltaTm [1]: 4.8 K
deltaTm [2]: -0.7 K
deltaTm (Homo sapiens): -0.2 K
deltaTm [4]: 6 K

O=C(NCCCN1CCCC1=O)c1cnc(NCc2ccccc2)nc1NC1CCCC1
deltaTm [1]: 4.3 K
deltaTm [2]: 0.5 K
deltaTm (Homo sapiens): 0.4 K
deltaTm [3]: 0.8 K
deltaTm [4]: 4.5 K

O=C(NCCCN1CCOC1=O)c1cnc(NCc2cc(Br)ccc2Br)nc1NC1CCCC1
deltaTm [1]: 3.6 K
deltaTm [2]: -0.6 K
deltaTm (Homo sapiens): 0.2 K
deltaTm [3]: 5.1 K
deltaTm [4]: 6 K

CCN(Cc1ccccc1)c1ncc(C(=O)NCCCN2CCCC2=O)c(NC2CCCC2)n1
IC50 [5]: > 10 µM
